Experiment [1] deals with T1, AChE (Homo sapiens, UniProt P22303). In words: biochemical.
Experiment [2] has as its target T1, AChE. In words: Enzyme kinetic studies of AChE inhibition (Lineweaver-Burk plots). Format: biochemical. The procedure: . The type of inhibition was estimated by means of linear Lineweaver-Burk […], and the substrate speed curves in the presence and absence of 3a, 3c and 3i of the strongest compounds were verified in the enzyme kinetics analysis. […] In the initial velocity measurements, different substrate concentrations, ranging from 600 µM to 18.75 µM, were used for the AChE enzyme. The secondary plots of the Km/Vmax (slope) versus changing concentrations were used to determine Ki (intercept on the x-axis) values of compounds [30]. […] Reversible inhibition comprises of the ensuing subtypes: competitive, uncompetitive, noncompetitive or mixed-type. Such inhibitions can be determined using Lineweaver–Burk plots. […] Based on the gained plot, a mixed type of inhibition by compound 3c was established. That is, the compound can bind to the enzyme–substrate complex or to the free enzyme. It also means that the compound is a reversible inhibitor; reversible compounds can be bound to the enzyme by non-covalent interactions such as ionic bonds, hydrophobic interactions and hydrogen bonds deprived of any chemical bonding or reaction with the enzyme. These interactions take place quickly and can be easily reversed. For that reason, the enzyme–inhibitor complex is rapidly degraded immediately before irreversible inhibition. […]

In experiment [3] the target is T2, hMAO-A (Homo sapiens, UniProt P21397).
T2 construct: purchased Sigma-Aldrich (Steinheim, Germany)
T2 sequence (P21397 1-527): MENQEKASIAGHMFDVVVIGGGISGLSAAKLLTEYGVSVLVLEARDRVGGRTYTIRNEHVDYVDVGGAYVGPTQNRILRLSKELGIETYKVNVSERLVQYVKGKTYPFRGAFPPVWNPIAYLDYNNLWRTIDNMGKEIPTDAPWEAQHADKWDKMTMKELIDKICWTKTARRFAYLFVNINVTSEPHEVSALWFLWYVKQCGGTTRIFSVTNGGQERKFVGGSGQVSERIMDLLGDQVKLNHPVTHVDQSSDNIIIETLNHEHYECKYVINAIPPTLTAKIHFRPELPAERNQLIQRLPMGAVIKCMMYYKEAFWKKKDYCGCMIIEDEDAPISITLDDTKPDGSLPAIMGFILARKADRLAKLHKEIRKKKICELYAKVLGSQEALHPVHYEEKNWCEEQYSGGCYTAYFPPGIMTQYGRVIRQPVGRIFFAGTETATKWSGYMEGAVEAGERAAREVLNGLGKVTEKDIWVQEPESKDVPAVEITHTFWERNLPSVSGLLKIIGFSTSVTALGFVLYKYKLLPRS
In words: Monoamine oxidase fluorometric inhibition assay, MAO-A. Format: biochemical. The procedure:
In order to investigate the monoamine oxidase enzyme inhibitory effects of synthesized compounds, MAO-A and MAO-B enzyme activities were performed by using a fluorometric inhibition method. Moclobemide and selegiline were used as standard drugs for MAO-A and MAO-B enzymes, respectively. Test compounds and standard drugs were used in the same concentrations as in AChE and BChE enzyme activity assays. In Table 2, MAO enzyme inhibitory results are given. […]. To investigate the MAO-A and MAO-B enzyme inhibition profiles of the synthesized compounds, the fluorometric enzyme inhibition assay was carried out, as previously defined by us. Ampliflu™ Red (10-Acetyl-3,7-dihydroxyphenoxazine) was used as a fluorescence reagent in this assay.

Experiment [4] has as its target T3, hMAO-B (Homo sapiens, UniProt P27338).
T3 construct: purchased Sigma-Aldrich (Steinheim, Germany)
T3 sequence (P27338 1-520): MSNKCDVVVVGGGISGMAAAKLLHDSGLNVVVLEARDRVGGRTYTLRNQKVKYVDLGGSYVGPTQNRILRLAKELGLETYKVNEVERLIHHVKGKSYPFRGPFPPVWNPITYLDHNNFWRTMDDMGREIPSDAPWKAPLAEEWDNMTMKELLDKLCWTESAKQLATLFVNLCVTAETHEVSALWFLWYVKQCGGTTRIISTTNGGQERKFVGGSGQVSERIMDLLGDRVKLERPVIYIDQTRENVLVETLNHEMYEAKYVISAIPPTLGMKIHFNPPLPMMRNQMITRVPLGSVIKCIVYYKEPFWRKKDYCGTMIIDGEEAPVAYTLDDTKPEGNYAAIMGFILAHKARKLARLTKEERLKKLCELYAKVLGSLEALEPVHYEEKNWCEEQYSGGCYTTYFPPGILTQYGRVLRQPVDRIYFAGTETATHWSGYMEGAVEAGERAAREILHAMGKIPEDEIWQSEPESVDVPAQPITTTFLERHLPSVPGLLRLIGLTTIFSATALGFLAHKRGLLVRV
In words: biochemical. The procedure: Test compounds and standard drugs were used in the same concentrations as in AChE and BChE enzyme activity assays. […] To investigate the MAO-A and MAO-B enzyme inhibition profiles of the synthesized compounds, the fluorometric enzyme inhibition assay was carried out, as previously defined by us. Ampliflu™ Red (10-Acetyl-3,7-dihydroxyphenoxazine) was used as a fluorescence reagent in this assay.

The target of experiment [5] is BChE (Homo sapiens, UniProt P06276). The experiment can be described thus: Anticholinesterase activity assay (modified Ellman method), BChE. Format: biochemical. The procedure:
. Initially, all the obtained compounds were tested at 10^−3 M and 10^−4 M concentrations and the ChE inhibitory results are outlined in Table 1. […]. Compounds 3a, 3c and 3i indicated more than 50% activity at the 10^−4 M concentration. […]. […] According to the results of activity tests, some general results can be listed as follows. The compounds 3a, 3c and 3i contain the non-substituted, methoxy and trifluoromethyl substituents on the phenyl ring, respectively. […]
The inhibitory capacity of the obtained compounds on AChE and BChE biological activities was assessed using a modified Ellman’s spectrometric method, as described in our previous studies. Donepezil were used as a reference drug. All pipetting procedures in the enzyme inhibition assay were carried out via a robotics system, Biotek Precision XS (Winooski, VT, USA). A BioTek-Synergy H1 microplate reader (Winooski, VT, USA) was used to carry out measurements of percent inhibition at 412 nm, and the IC50 values of the selected compounds were performed as previously described.
A general note: Ellman's reagent forms a yellow product with free thiols.

Molecules are shown by their SMILES.

T1 sequence (P22303 32-614): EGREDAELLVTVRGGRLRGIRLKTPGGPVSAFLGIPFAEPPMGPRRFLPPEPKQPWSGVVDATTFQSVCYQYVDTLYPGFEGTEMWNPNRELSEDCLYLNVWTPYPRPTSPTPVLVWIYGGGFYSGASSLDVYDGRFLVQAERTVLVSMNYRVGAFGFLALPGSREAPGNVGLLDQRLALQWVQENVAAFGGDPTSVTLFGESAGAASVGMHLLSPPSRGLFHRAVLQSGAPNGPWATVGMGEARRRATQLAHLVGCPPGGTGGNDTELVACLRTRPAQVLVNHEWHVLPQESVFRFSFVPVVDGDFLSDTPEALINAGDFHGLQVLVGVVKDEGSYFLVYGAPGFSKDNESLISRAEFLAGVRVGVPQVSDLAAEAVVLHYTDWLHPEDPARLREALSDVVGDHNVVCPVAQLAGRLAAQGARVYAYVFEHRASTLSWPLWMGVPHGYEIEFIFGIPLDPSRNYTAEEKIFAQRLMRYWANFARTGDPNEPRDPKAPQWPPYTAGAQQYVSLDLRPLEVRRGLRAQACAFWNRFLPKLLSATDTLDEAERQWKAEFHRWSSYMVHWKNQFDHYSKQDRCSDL
Chain of BChE (P06276 29-602): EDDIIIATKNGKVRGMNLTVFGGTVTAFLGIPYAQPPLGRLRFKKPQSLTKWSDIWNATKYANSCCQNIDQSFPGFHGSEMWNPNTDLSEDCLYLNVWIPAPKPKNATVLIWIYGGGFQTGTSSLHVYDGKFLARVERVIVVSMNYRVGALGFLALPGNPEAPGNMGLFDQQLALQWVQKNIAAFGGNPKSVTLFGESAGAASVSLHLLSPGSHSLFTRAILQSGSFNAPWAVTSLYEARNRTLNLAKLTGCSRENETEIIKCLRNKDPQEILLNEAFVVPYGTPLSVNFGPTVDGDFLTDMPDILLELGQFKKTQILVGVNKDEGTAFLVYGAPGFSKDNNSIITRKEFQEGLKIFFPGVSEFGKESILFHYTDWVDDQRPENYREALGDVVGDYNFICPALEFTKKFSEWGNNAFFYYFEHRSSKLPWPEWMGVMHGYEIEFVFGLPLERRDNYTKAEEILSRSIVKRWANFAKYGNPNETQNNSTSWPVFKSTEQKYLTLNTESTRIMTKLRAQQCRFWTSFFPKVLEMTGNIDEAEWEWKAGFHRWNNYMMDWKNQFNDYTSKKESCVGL

For the compound `COc1ccc(-c2csc(NN=Cc3ccc(N4CCN(c5ccc(F)cc5)CC4)cc3)n2)cc1` [Compound 3c, 2-(2-(4-(4-(4-fluorophenyl)piperazin-1-yl)benzylidene)hydrazineyl)-4-(4-methoxyphenyl)thiazole], the inhibition at 1000 µM in experiment [1] (10^−3 M) stood at 88.5 ± 1.1%; in experiment [3] (10^−3 M), 38.6 ± 0.58%; in experiment [4] (10^−3 M, read-out: MAO-B % Inhibition), 85.1 ± 1%; in experiment [5] (10^−3 M), 28 ± 0.43%. Further, the IC50 was found to be 31.7 ± 1 nM in experiment [1] (10^−3–10^−9 M concentrations) and 1020 ± 42 nM in experiment [4] (read-out: MAO-B IC50). In addition, in experiment [2] (Lineweaver–Burk plots, 2 × IC50, IC50 and IC50/2, substrate 600 µM to 18.75 µM), the type of inhibition result was “mixed type”. Further, in experiment [2] (secondary plot of Km/Vmax (slope) versus inhibitor concentration, read-out: steady-state inhibition constant (Ki)), the Ki was found to be 19.7 nM. Further, the inhibition at 100 µM in experiment [3] (10^−4 M) amounted to 21.8 ± 0.55%; in experiment [4] (10^−4 M, read-out: MAO-B % Inhibition), 70.3 ± 0.85%; in experiment [5] (10^−4 M), 21.6 ± 0.65%.

Broadly, the inhibition is the relative decrease from the control value, in per cent. Usually IC50 stands for the concentration needed to halve the response being measured. By Ki is commonly meant the dissociation constant of the complex between target and ligand, obtained from inhibition or displacement.

The record behind these values is paper PMC6651548, “Synthesis and AChE Inhibitory Activity of Novel Thiazolylhydrazone Derivatives” (Molecules, 2019).
